# Laboratory results reported in ChEMBL document CHEMBL1201862, “PubChem BioAssay data set” (2004).
# Calls of active or inactive are those of the source.
# Key:
# [1] = target: Nuclear receptor subfamily 5 group A member 2 (Homo sapiens, UniProt O00482); format: functional, cell-based;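 further: HEK293T cells transfected with LRH-1 and a StAR promoter luciferase reporter; potency for inhibitors that lower LRH-1 driven reporter light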
# Steroidogenic factor 1 = Steroidogenic factor 1 (Homo sapiens, UniProt Q13285); experiment: Counterscreen for inverse agonists of the liver receptor homolog-1 (LRH-1; NR5A2): Luminescence-based cell-based high throughput dose response assay to identify inverse agonists of the Steroidogenic Factor 1 Nuclear Receptor (SF1; NR5A1).; format: functional
# [2] = nonselective StAR promoter luciferase inhibitors – cell-based, luminescence, luciferase reporter, counter-screen for LRH-1 inverse agonist project, dose response (AID 651969); format: functional
# [3] = THP-1 cell cytotoxicity, dose response, cytotoxicity control for non-replicating M. tuberculosis project (AID 489025); format: functional
# [4] = Vero E6 cell cytotoxicity, dose response, cytotoxicity control for non-replicating M. tuberculosis project, secondary assay (AID 492998); format: functional, VeroE6; conditions: Vero C1008
# cells = format: functional
# INS1 = experiment: INS-1E survival protection against cytokine death – cell-based, luminescence, retest, dose response (AID 449756); format: functional; conditions: Rattus norvegicus;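 further: cell death triggered by IL-1 beta plus TNF-alpha plus IFN-gamma mixture; protective hits raise ATP signal compared with cytokine alone wells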
# [5] = reduction of Shn3 3'UTR-driven luciferase in osteoblasts – cell-based, Clone20 osteoblasts, firefly luciferase, cherry-picked, dose response (AID 624132); format: functional;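 further: firefly luciferase luminescence from reporter carrying the Shn3 3'UTR in osteoblasts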
# [6] = loss of viability in HepG2 cells – cell-based, CellTiter-Glo, cherry-picked, cytotoxicity control for Shn3 inhibitor project, dose response (AID 624134); format: functional
# [7] = non-specific 3'UTR reporter inhibition in Clone20-Shn3RL – cell-based, Renilla luciferase, cherry-picked, counter-screen for Shn3 inhibitor project, dose response (AID 624133); format: functional
# [8] = cytotoxicity toward MDA-MB-231 breast cancer cells – cell-based, CellTiter-Glo luminescence, cherry-pick, cytotoxicity control for RAD54 inhibitor project, dose response (AID 651692); format: functional
# [9] = target: T1, DNA repair and recombination protein RAD54-like (Homo sapiens, UniProt Q92698); experiment: RAD54 Holliday junction migration blockers – biochemical, fluorescence, cherry-picked samples, dose series, confirmation (AID 651657); format: functional
# T1 sequence (Q92698 whole entry): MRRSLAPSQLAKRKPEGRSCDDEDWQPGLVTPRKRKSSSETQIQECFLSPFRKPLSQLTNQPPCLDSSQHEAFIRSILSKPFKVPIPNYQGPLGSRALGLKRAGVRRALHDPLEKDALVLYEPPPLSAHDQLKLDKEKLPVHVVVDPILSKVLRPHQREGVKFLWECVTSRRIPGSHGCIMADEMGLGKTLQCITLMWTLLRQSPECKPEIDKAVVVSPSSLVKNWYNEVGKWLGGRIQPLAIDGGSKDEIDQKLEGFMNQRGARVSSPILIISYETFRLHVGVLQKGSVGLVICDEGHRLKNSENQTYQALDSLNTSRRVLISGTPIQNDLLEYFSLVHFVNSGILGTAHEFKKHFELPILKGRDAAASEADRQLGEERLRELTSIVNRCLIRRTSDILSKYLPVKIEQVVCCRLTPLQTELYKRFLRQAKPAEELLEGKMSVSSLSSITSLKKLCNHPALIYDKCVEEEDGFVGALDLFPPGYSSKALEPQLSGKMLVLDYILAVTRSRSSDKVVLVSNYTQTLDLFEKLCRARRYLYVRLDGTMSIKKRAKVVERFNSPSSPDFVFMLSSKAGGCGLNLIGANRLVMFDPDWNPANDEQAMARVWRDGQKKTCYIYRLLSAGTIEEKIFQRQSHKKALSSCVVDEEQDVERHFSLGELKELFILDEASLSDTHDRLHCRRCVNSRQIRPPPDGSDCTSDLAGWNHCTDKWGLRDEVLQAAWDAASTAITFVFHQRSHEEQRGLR
# [10] = cytotoxicity in HEK293 background cells – cell-based, dry powder, set 2, counter-screen for EBV LMP1 inhibitor project, dose response (AID 624374); format: functional
# [11] = tested on: Streptococcus sp. 'group A'; experiment: Streptococcus pyogenes SK(-)GAS viability under kanamycin – luminescence, BacTiterGlo, confirmation, counter-screen for streptokinase expression inhibitor project, dose response (AID 1900); format: functional, organism-based
# Streptokinase A = target: T2, Streptokinase A (Streptococcus pyogenes serotype M1, UniProt P10520); experiment: viability-normalized secreted streptokinase activity reduction – plasminogen activation absorbance, OD405, dose response (AID 1914); format: functional, Streptococcus pyogenes M1 GAS;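 further: secreted streptokinase activity via plasminogen activation per viability signal from cell pellet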
# T2 sequence (P10520 whole entry): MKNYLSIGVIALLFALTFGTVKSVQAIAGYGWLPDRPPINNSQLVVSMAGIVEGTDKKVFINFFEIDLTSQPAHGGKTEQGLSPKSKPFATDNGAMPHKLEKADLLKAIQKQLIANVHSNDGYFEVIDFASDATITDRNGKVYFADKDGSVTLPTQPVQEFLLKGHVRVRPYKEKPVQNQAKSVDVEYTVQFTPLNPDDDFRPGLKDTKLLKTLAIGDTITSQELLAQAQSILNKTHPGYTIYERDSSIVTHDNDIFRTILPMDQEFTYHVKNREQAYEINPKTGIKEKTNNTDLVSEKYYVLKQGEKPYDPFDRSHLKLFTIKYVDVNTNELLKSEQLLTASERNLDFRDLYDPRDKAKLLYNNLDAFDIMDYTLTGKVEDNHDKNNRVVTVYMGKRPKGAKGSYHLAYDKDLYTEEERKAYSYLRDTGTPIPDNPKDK
# [12] = Trypanosoma cruzi growth suppression in host cells – NIH3T3 host cells, beta-gal luminescence, confirmation (AID 2044); format: functional, cell-based;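 further: intracellular parasites grown in NIH/3T3 mouse fibroblasts as host cells; luminescent beta-galactosidase reporter signal from transgenic T. cruzi replicating inside host cells; inhibitors lower the luminescence signal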
# [13] = NIH3T3 cell viability loss – ATP luminescence, mouse fibroblasts, counter-screen, dose response (AID 2010); format: functional, cell-based;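 further: cells exposed to compound for about 90 hours before reading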
# Streptococcus = experiment: GAS UMAA2166 growth inhibition – luminescence, BacTiterGlo, counter-screen for streptokinase expression inhibitor project, dose response (AID 1915); format: functional, organism-based;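 further: potency for reduction of bacterial viability or growth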
# [14] = Luminescence Cell-Based Dose Retest to Confirm Inhibitors of Cancer Stem Cells. [Related pubchem assays (depositor defined):AID2717, AID2721]; format: functional; conditions: Homo sapiens
# [15] = target: T3, Heat shock factor protein 1 (Mus musculus, UniProt P38532); experiment: enhancement of HSF1-driven luciferase signal – cell-based, NIH3T3, luminescence, dose retest, confirmation (AID 435004); format: functional;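 further: stress induced by proteasome inhibitor MG132 added 30 min after compound; luciferase reporter driven by HSF1 response element in NIH3T3 cells; actives raise luminescence as potentiators of the MG132 stress response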
# T3 sequence (P38532 whole entry): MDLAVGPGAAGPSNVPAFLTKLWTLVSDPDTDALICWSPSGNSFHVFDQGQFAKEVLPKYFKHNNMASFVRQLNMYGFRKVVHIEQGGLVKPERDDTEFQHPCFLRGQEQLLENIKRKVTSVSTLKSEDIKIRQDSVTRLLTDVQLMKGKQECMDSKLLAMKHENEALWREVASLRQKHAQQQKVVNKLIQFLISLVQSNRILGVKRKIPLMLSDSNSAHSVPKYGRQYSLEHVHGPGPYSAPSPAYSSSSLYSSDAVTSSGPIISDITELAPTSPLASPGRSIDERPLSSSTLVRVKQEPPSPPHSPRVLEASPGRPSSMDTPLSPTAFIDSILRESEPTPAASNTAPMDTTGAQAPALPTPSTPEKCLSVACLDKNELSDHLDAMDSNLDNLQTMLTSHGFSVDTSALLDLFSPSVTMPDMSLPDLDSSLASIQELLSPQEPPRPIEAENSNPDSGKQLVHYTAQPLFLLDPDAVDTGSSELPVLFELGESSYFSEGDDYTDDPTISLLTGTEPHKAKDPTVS
# [16] = target: T4, Replicative DNA helicase DnaB (Mycobacterium tuberculosis, UniProt P9WMR3); experiment: DnaB intein splicing inhibitors, dose response, biochemical, cell-free fluorescence (AID 449749); format: functional
# T4 sequence (P9WMR3 whole entry): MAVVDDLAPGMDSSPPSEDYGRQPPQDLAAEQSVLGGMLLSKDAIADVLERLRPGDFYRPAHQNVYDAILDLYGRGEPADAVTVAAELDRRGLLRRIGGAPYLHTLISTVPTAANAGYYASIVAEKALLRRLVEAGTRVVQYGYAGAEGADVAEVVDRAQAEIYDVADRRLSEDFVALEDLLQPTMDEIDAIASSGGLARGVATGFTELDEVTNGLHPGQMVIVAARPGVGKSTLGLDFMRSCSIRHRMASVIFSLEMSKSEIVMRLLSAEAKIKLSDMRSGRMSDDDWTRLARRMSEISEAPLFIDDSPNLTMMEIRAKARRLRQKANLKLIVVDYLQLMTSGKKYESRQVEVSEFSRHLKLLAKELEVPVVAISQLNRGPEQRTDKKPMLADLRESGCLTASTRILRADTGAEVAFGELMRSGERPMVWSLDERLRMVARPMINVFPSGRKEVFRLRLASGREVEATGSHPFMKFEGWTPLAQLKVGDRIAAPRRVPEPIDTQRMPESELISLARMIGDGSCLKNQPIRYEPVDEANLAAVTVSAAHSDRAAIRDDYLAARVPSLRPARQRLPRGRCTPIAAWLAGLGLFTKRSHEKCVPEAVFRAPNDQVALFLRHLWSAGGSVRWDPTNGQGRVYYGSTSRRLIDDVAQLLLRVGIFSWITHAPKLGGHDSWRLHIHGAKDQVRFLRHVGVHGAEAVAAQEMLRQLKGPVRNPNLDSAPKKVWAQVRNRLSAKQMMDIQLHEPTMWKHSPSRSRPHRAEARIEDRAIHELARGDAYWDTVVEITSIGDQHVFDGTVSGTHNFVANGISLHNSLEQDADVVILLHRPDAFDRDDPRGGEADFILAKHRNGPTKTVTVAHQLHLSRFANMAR
# Protein RecA = target: T5, Protein RecA (Mycobacterium tuberculosis, UniProt P9WHJ3); experiment: Fluorescence Cell-Free Homogeneous Dose Retest to Identify Inhibitors of RecA-Intein Splicing Activity. [Related pubchem assays (depositor defined):AID2097, AID2223, AID489010, AID492950]; format: functional
# T5 sequence (P9WHJ3 whole entry): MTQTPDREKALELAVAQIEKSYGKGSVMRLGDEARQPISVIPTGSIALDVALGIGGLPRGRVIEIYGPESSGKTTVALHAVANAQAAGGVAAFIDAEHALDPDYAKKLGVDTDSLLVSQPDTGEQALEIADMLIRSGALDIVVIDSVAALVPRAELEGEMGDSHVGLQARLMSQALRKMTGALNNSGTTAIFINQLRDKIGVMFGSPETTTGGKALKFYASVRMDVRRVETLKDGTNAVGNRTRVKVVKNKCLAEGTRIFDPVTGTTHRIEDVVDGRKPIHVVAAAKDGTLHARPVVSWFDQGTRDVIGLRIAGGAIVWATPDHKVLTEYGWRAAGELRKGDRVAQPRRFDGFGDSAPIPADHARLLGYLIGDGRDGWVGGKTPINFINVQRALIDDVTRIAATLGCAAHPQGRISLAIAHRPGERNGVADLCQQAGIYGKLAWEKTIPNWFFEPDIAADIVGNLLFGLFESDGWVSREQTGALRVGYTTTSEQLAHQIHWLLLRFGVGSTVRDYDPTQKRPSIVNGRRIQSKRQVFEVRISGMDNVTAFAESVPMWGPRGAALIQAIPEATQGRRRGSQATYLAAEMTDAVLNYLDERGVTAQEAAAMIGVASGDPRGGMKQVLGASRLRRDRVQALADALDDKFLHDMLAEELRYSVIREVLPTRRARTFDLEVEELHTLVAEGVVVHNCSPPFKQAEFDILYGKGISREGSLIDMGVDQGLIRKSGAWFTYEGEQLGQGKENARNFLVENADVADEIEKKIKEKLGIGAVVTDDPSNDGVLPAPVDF
# Melanocortin receptor 4 = Melanocortin receptor 4 (Homo sapiens, UniProt P32245); format: functional, cell-based;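 further: Cell-based assay with luminescence read-out, confirmatory dose-response testing for agonist activity of biased ligands at MC4R; human U2OS cells with tagged receptor and beta-arrestin; potency of agonists that increase receptor coupling to beta-arrestin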
# [17] = viability of uninfected HEp-2 cells – cell-based, HTS, cytotoxicity control for RSV inhibitor project, dose response (AID 2410); format: functional; conditions: human respiratory syncytial virus
# Beta-galactosidase = Beta-galactosidase (Escherichia coli, UniProt Q8VNN2); experiment: Dose response counterscreen for EBI2 assay utilizing the enzyme, b-galactosidase.; format: functional
# Chain of Beta-galactosidase (Q8VNN2 whole entry): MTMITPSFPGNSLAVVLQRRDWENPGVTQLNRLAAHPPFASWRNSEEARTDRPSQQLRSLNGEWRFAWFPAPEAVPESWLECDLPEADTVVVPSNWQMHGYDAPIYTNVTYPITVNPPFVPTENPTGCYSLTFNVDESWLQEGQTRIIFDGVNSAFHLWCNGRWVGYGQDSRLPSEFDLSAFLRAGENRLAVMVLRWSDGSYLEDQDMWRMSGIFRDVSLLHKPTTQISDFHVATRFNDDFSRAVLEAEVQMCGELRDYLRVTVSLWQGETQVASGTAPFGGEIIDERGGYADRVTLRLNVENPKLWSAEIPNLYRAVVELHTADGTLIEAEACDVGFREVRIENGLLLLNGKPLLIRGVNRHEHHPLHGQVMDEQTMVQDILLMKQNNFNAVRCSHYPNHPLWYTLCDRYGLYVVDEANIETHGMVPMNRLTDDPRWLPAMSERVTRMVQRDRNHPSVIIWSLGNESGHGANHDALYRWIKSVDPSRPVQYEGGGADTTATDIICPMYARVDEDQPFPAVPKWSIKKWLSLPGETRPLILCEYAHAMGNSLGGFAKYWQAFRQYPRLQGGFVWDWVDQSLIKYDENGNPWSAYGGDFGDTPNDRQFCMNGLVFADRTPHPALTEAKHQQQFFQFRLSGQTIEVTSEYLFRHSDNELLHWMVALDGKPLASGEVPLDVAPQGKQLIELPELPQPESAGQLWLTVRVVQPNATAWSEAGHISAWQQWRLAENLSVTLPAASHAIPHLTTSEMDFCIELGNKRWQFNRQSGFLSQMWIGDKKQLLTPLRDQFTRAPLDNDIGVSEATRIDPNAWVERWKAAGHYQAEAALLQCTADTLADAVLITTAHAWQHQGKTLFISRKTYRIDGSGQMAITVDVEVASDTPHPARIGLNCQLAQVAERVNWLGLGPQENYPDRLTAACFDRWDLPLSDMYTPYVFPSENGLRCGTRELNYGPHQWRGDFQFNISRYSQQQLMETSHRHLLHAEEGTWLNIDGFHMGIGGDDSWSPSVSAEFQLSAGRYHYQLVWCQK
# Chain of Steroidogenic factor 1 (Q13285 whole entry): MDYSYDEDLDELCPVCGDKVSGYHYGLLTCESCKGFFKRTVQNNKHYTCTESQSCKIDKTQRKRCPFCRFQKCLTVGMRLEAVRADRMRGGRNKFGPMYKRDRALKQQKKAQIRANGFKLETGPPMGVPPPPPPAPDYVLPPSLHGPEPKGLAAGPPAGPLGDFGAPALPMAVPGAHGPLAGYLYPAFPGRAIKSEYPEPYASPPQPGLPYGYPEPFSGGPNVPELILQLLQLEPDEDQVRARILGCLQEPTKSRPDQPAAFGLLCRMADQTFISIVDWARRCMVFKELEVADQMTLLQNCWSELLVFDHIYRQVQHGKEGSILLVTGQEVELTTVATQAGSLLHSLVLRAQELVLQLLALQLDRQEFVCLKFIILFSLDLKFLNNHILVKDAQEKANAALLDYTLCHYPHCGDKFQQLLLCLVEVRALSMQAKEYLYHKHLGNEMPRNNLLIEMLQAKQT
# Chain of Nuclear receptor subfamily 5 group A member 2 (O00482 whole entry): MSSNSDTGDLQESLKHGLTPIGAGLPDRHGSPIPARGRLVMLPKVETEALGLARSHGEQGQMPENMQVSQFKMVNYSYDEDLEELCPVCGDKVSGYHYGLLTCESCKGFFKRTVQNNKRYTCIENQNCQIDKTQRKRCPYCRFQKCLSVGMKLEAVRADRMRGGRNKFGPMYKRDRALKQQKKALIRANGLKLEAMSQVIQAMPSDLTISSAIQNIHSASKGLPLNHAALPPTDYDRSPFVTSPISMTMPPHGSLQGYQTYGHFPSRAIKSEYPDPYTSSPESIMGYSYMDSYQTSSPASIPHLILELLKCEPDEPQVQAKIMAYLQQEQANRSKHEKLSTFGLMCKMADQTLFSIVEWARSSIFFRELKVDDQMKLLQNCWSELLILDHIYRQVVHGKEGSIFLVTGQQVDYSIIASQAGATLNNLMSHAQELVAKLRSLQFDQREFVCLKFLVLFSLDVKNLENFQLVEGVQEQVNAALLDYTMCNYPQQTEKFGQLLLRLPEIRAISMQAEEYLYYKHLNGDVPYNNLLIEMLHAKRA
# Chain of Melanocortin receptor 4 (P32245 whole entry): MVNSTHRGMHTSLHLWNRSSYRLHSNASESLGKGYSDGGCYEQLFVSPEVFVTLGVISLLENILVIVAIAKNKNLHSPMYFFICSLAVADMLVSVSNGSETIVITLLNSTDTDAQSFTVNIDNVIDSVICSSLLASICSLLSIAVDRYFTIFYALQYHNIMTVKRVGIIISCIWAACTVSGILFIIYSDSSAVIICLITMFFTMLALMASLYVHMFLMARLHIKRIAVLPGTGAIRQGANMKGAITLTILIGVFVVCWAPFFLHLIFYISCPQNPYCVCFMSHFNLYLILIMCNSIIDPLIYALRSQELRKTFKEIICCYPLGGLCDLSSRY
smiles,measurement,setting,value
O=C(OCC(=O)N1CCN(C(=O)COC(=O)c2ccc(O)cc2O)CC1)c1ccc(O)cc1O,IC50,[1],3.12 µM (active)
same,IC50,Steroidogenic factor 1,3.09 µM (active)
same,IC50,[2],35.9 µM (inactive)
O=C(Nc1ccc(Cc2ccncc2)cc1)c1ccc([N+](=O)[O-])o1,CC50,[3],5.59 µM (active)
same,CC50,[4],4.99 µM (active)
same,IC50,cells,1.3 µM (active)
same,AC50,INS1,7.72 µM (active)
same,AC50,[5],2.71 µM (active)
same,AC50,[6],25.4 µM (active)
same,AC50,[7],13.9 µM (active)
same,IC50,[1],35.9 µM (inactive)
same,IC50,Steroidogenic factor 1,0.831 µM (active)
same,IC50,[2],35.9 µM (inactive)
CCOC(=O)c1c(C)n(-c2ccc(OC)cc2)c2ccc(O)c(CN(C)C)c12,AC50,[8],34.4 µM (active)
same,AC50,[9],52.6 µM (active)
CO[C@H]1CN(C)C(=O)c2ccc(NC(=O)C3CC3)cc2OC[C@H](C)N(C(=O)c2ccccn2)C[C@H]1C,AbsAC35,[10],207.94 µM
O=C1C2=C(N=C(S)NC2c2ccc(Cl)cc2)NC(c2ccc(Cl)cc2)N1c1ccc(Cl)cc1 (stereo not drawn),EC50,[11],1.89 µM (active)
same,EC50,Streptokinase A,> 150 µM (not active)
same,EC50,[12],3.44 µM (active)
same,EC50,[13],> 60 µM (not active)
same,EC50,Streptococcus,2.61 µM (active)
same,AC50,[14],4.68 µM (active)
same,EC50,[15],> 260 µM (inactive)
same,AC50,[16],5.92 µM (active)
same,EC50,Protein RecA,13.1 µM (active)
same,EC50,Melanocortin receptor 4,9.63 µM (active)
Cc1ccc(C)c(N2CCN(C(=O)c3cc4c(C)nc5ccccc5c4o3)CC2)c1,CC50,[17],8.05 µM (active)
same,IC50,Beta-galactosidase,> 80 µM (inactive)
